Here are results for one molecule from US12202827B2, “Aldosterone synthase inhibitor” (DAMIAN PHARMA AG, priority 2016, dated 2025).

A short description of data set [1]: Hygroscopicity, open flasks in unconditioned ambient air for 24 hours. The note with it: open flask.
Method: 100 mg samples of the two crystalline salts were stored in open flasks for 24 hours side by side at room temperature in unconditioned ambient air and weight measurements occurred at time 0 and after 24 hours (Table 6).
For data set [2] the following is noted: literature; cited from earlier work.
Setting [3] is: room temperature, unconditioned ambient air.

Consider `Cl.N#Cc1ccc([C@H]2CCCc3cncn32)cc1`, for which the “Hygroscopicity (assessment in words)” value in data set [1] (ambient air) is given as “significant hygroscopicity”. In data set [1] (setting [3]), this molecule displayed an Absolute weight of 113.2 mg and a Weight increase of 13.1%. Further, the Weight increase in data set [1] (room temperature, unconditioned ambient air, listed as Chloride Salt) worked out at 13.1%. The “Hygroscopicity (in words)” value in data set [2] is recorded as “highly hygroscopic”.
